Laboratory results published in patent US5306620A, “Antibodies that bind to a ligand-induced binding site on integrin and induce integrin activation” (The Scripps Research Institute, priority 1990, dated 1994).
Blank lines part the entries; values can stand above or below the compound they belong to. Residues, ends and D or L forms follow the SMILES beside them.

Legend:
αIIb β3 on A5 cells [1] = target: T1, αIIb β3 on A5 cells (Homo sapiens, UniProt P05106+P08514); test: PAC1-binding assay (FACS) on A5 cells; format: cell-based; details: for stimulation of PAC1 binding to A5 cells by platelet agonists: ADP 10 to 50 uM, thrombin 1 to 5 units/ml, epinephrine 4 to 200 uM, phorbol myristate acetate 5 to 500 nm, ionomycin 5 to 200 nM
T1 construct: expressed in transfected cells
T1 sequence (P08514 32-887 limits assumed): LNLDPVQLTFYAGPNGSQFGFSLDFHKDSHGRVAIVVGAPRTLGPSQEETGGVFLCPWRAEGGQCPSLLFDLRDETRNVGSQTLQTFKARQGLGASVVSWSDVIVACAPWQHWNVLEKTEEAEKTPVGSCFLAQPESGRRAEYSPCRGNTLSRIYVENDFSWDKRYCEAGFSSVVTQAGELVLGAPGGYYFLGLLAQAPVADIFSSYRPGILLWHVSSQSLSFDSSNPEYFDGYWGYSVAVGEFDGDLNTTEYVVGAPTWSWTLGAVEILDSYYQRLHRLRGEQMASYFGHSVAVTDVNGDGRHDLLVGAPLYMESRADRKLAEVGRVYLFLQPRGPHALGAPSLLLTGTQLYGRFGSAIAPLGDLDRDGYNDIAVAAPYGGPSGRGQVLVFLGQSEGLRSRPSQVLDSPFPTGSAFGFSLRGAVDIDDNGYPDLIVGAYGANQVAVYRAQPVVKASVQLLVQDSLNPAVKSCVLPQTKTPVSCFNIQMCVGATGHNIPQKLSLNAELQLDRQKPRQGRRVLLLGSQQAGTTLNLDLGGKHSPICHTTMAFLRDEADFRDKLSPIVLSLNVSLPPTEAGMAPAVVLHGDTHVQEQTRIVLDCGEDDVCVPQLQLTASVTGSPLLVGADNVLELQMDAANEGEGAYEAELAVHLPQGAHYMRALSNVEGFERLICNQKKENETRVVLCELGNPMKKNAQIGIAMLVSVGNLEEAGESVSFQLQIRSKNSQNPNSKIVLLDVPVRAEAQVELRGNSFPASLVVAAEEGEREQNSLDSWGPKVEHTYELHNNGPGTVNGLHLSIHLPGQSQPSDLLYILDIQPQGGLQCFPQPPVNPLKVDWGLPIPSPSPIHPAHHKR
T1 sequence (P08514 891-1039 partner limits assumed): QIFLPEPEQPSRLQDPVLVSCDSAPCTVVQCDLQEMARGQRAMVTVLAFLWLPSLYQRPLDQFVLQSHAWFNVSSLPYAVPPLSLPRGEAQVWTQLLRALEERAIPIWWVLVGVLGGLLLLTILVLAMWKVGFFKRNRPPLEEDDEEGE
T1 sequence (P05106 27-788): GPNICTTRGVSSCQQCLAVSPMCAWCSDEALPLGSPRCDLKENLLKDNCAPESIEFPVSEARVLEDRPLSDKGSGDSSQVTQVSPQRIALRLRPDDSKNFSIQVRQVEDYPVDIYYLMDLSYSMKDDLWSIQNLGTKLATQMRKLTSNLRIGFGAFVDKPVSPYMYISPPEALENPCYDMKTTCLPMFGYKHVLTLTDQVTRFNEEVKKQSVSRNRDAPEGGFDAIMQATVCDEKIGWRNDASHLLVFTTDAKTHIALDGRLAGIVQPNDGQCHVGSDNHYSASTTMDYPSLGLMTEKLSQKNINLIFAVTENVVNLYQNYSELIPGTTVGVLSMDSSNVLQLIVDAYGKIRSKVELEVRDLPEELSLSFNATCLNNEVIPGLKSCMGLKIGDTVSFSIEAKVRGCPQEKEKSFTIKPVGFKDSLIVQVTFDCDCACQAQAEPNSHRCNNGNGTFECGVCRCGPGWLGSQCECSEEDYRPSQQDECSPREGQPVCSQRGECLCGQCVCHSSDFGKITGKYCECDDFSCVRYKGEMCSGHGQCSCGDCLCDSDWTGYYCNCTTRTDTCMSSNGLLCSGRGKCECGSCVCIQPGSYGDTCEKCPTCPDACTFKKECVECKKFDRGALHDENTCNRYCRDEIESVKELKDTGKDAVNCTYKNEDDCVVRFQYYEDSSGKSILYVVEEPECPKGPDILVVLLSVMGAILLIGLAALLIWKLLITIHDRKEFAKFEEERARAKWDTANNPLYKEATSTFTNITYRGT
Procedure: (§1) Antibody binding to cells was analyzed by flow cytometry, also referred to as fluorescence-activated cell sorting (FACS). Cells for flow cytometric analysis were harvested with 3.5 mM EDTA and an aliquot of 5×10^5 cells was pelleted, resuspended in media or Tyrodes buffer containing a specific first antibody, and incubated for 20 minutes on ice with or without peptide ligands. Cells were pelleted, washed once, and incubated for 20 minutes with the second antibody, FITC-conjugated goat anti-mouse IgG (Tago, Burlingame, Calif.). Cells were then pelleted, resuspended in 0.5 ml media or Tyrodes and analyzed on a FACS IV analyzer (Becton-Dickinson, San Jose, Calif.).
To that end, PAC1 antibody was fluoresceinated with FICT as described by Taub et al., J. Biol. Chem., 264:259-265 (1989) to form FITC-PAC1 and used directly in flow cytometry. Briefly, 5×10^5 cells were harvested and resuspended to 50 ul in Tyrodes buffer [Frelinger et al., J. Biol. Chem., 265:6346-6352 (1990)]containing 10 ug/ml of FITC-PAC1 in the presence or absence of additional agonists. After a 30 minute incubation at 37 degrees, the samples were diluted to 0.5 ml with Tyrodes and analyzed by flow cytometry as described in Example 7.
To evaluate the capacity of a monoclonal antibody to activate (i.e., to increase specific ligand binding affinity of) the integrin GPIIb-IIIa, an assay was developed that measures PACT binding to GPIIb-IIIa bearing cells using the FACS analysis as described in Example 7.
In the PAC1-binding assay for integrin-activating antibody, the activating antibody was admixed with an integrin binding cell at a concentration of about 5 uM antibody. For GPIIb-IIIa, a suspension of cells was prepared as in Example 9, activating antibody was admixed at 5 uM and the admixture was maintained for 20 minutes on ice. Thereafter FITC-PAC1 was added as described in Example 9 and the FACS protocol followed as in Example 9 to measure PAC1 binding.

[2] = target: T2, αIIb β3 on fixed platelets (Homo sapiens, UniProt P05106+P08514); test: FITC-PAC1 binding to formaldehyde fixed platelets; format: cell-based; details: 0.1% paraformaldehyde; PMA 50 nM, thrombin 1 unit/ml
T2 construct: To fix platelets, blood from a normal donor was centrifuged at 1,000 rpm; endogenous in cells; host or cells: platelets from blood of a normal donor, fixed with 0.1% paraformaldehyde
T2 sequence (P08514 32-887 limits assumed): as the sequence (P08514 32-887 limits assumed) above
T2 sequence (P08514 891-1039 partner limits assumed): as the sequence (P08514 891-1039 partner limits assumed) above
T2 sequence (P05106 27-788): as the sequence (P05106 27-788) above
Procedure: The data described in Examples 10 and 11 established that Fab fragments of the activating antibodies P41 or Ab62 activate A5 cells and platelets to express αIIb β3 dependent receptors for fluid phase Fg and PAC1. To determine if this activation required intracellular signal transduction events, the capacity of these Fabs to induce PACI binding to formaldehyde fixed platelets was measured.
To fix platelets, blood from a normal donor was centrifuged at 1,000 rpm for 20 minutes and the resulting platelet rich plasma incubated with 2 ug/ml PGE1 and 1 mM theophylline for 15 minutes at room temperature followed by a 15 minute room temperature incubation with 0.1% paraformaldehyde. Fixed or normal platelets were then analyzed for FITC-PAC1 binding as described above in Example 9 in the presence of platelet agonists, or activating antibody P41.

GPIIb-IIIa on platelets [3] = target: T3, GPIIb-IIIa on platelets (Homo sapiens, UniProt P05106+P08514); test: PAC1-binding assay (FACS) on platelets; format: cell-based
T3 construct: endogenous in cells; host or cells: platelets
T3 sequence (P08514 32-887 limits assumed): as the sequence (P08514 32-887 limits assumed) above
T3 sequence (P08514 891-1039 partner limits assumed): as the sequence (P08514 891-1039 partner limits assumed) above
T3 sequence (P05106 27-788): as the sequence (P05106 27-788) above
Procedure: as §1
In the PAC1-binding assay for integrin-activating antibody, the activating antibody was admixed with an integrin binding cell at a concentration of about 5 uM antibody.

GPIIb-IIIa on platelets [4] = target: T3, GPIIb-IIIa on platelets; test: 125I-anti-LIBS1 binding to platelets in the presence of fibrinogen; details: ADP (10 uM) stimulated platelets, 125I-anti-LIBS1 Fab 0.8 uM, 37 C 30 minutes; read-out: concentration of fibrinogen required for a half-maximal increase in anti-LIBS1 binding
Procedure: FIG. 1 illustrates anti-LIBS1 binding to platelets in the presence of ADP-stimulated fibrinogen as described in Example 4. Gel-filtered platelets (1 ×10^8 platelets/ml) were incubated with ^125 I-labeled anti-LIBS1 and varied concentrations of fibrinogen in the presence (ADP-stimulated) or absence (Control) of ADP (10 uM) for 30 minutes at 37 C. Platelet-bound radioactivity was separated from free by centrifuging the platelets through a layer of sucrose. Results are shown as the average of triplicate determinations +/ - one standard deviation.
Platelet rich plasma (PRP) was prepared as in Example 1A and divided into 2 aliquots. In one aliquot, the platelets were stimulated to express functional GPIIb-IIIa (fibrinogen receptors) by admixture of adenosine diphosphate (ADP) to a 10 uM final concentration to produce ADP-stimulatedplatelets. As a negative control, the second aliquot of PRP received no stimulus to produce non-stimulated platelets.
^125 I-labeled LIBSA (anti-LIBS1) Fab fragments, prepared by usual techniques from the ^125 I-labeled antibodies described in Example 2, were then admixed to a 0.8 uM final concentration with several samples of each of the PRP aliquots in the presence of varying concentrations of fibrinogen. […] The amount of ^125 I-anti LIBS1 associated with the pellet was then determined by gamma counting.

αIIb β3 on A5 cells [5] = target: T1, αIIb β3 on A5 cells; test: Soluble 125I-fibrinogen binding to A5 cells; format: cell-based
Procedure: FIG. 4 illustrates the equilibrium binding of soluble fibrinogen (Fg) to Ab-62 stimulated (activated) A5 cells when measured as in Example 10. A5 cells at a concentration of 10^6 per ml were admixed with 6 uM of Sepharose-purified AB-62 and maintained at 22 C. for 30 minutes to activate the integrin. Iodinated Fg was then admixed in varying concentrations from 0.01 to 1 nM. After a 60 minute maintenance period, the bound ligand was separated from free ligand by centrifugation through 0.3 ml of 20% sucrose. The amount of radiolabelled ligand associated with the cell pellet was determined by gamma detection. Saturable binding was measured in three different experiments and plotted versus the input Fg concentration to obtain an averaged profile. A Scatchard replot of the binding data was made and is shown in the insert.
An independent measure of integrin activation was made by detecting the ability of a cell containing the integrin to bind soluble fibrinogen (Fg) that had been labelled with ^125 I. Fg was isolated and labelled with ^125 I by standard methods as described by Marguerie et al., J. Biol. Chem., 255:154-161 (1980) to form ^125 I-Fg. Thereafter, the binding of ^125 I-Fg to transfected cells was assayed as described previously for platelets [Marguerie et al., J. Biol. Chem., 255:154-161 (1980)]. Binding was initiated by the addition of cells to radiolabelled Fg and incubation at 37 degrees for 30 minutes. Bound ligand was separated from free ligand by centrifugation through 0.3 ml of 20% sucrose and the amount of radiolabelled ligand associated with the cell pellet determined by gamma detection.
Background binding in this assay detected about 30,000 molecules of Fg bound per integrin bearing cell, whereas maximum Ab-62 stimulated A5 cells bound about 95,000 molecules of Fg per cell.
Equilibrium binding of soluble Fg to Ab-62 stimulated (activated) A5 cells was carried out to better characterize Fg binding. […] A5 cells (10^6 per ml) were incubated with 6 uM Sepharose-purified Ab-62 for 30 minutes at 22 C. to activate the integrin. Thereafter ^125 I-Fg was admixed in varying concentrations from 0.01 to 1 nM. After 60 minutes, bound Fg was measured as described above after centrifugation of the cells through sucrose.
Saturable binding was measured in three different experiments and plotted versus the input Fg concentration to obtain average data which is shown in FIG. 4. A Scatchard replot of the binding data was also made and is shown in the inset to FIG. 4. The binding of the various concentrations of Fg to activated A5 cells at steady state was analyzed by use of the "Ligand" computer program. […] There was day to day variation in the quantity of αIIb β3 expressed as measured by the binding of the 2G12 antibody (150,000 to 440,000 sites/cell) as well as in the number of Fg receptors (138,000 to 360,000 sites/cell). The ratio of Fg receptors to αIIb β3 expressed per cell on a given day was 0.83±0.05, thus virtually all of the recombinant αIIb β3 was functional with respect to Fg binding.

[6] = target: T4, solubilized αIIb β3 from platelets (Homo sapiens, UniProt P05106+P08514); test: Solution phase assay: 125I-Fg binding to solubilized αIIb β3; format: biochemical
T4 construct: αIIb β3 was solubilized from platelets; endogenous in cells; host or cells: human platelets, octylglucoside lysate
T4 sequence (P08514 32-887 limits assumed): as the sequence (P08514 32-887 limits assumed) above
T4 sequence (P08514 891-1039 partner limits assumed): as the sequence (P08514 891-1039 partner limits assumed) above
T4 sequence (P05106 27-788): as the sequence (P05106 27-788) above
Procedure: To determine if activating antibodies could activate αIIb β3 extracted away f rom the membrane milieu, the activating capacity to stimulate Fg binding in a solution phase was assayed. In this assay, αIIb β3 was solubilized from platelets, incubated in the presence or absence of activating monoclonal antibodies, and then bound to microtiter plates coated with a non-activating monoclonal anti β3 antibody.
The platelet pellet was resuspended and solubilized in ice cold 10 mM Hepes containing 150 mM NaCl, 50 mM octyl-B-D-glucoypyranoside (Calbiochem, La Jolla, Calif.) 1 mm PMSF, 50 ng/ml PGE, 1 mM CaCl2, 1 mM MgCl2, 50 uM leupeptin and 1 mg/ml N-ethylmaleimide (Sigma, St. Louis, Mo.) and centrifuged at 100,000 g for 30 minutes. […] The microtiter wells were incubated at 4 C. overnight, washed twice with a modified Tyrodes-Hepes buffer (2.5 mM Hepes, 150 mM NaCl, 2.5 mM KCl, 1 mM MgCl2, 12 mM NaHCO3, 5.5 mM D-glucose and 1 mg/ml BSA, pH 7.4) containing 50 MM octyl-B-D-glucopyranoside and 0.1 uM activating monoclonal antibody and then twice in Tyrodes-Hepes buffer only to form αIIb β3 -bound microtiter wells. […] Bound radioactivity was counted after 2 washes with Tyrodes-Hepes buffer.

stimulation of PAC1 binding to A5 cells by platelet agonists (αIIb β3 on A5 cells [1]): failed to stimulate | PAC1 response after fixation of platelets [2]: completely abrogated
Compound: thrombin

Compound: CNC[C@H](O)c1ccc(O)c(O)c1 [epinephrine]
stimulation of PAC1 binding to A5 cells by platelet agonists (αIIb β3 on A5 cells [1]): failed to stimulate

Compound: C[C@H](CCC(=O)O)C[C@H](C)C[C@H](C)C(=O)/C=C(\O)[C@H](C)C[C@H](C)C/C=C/[C@@H](C)[C@@H](O)[C@@H](C)[C@@H](O)C[C@@H]1CC[C@@](C)([C@H]2CC[C@@](C)([C@@H](C)O)O2)O1 [ionomycin]
stimulation of PAC1 binding to A5 cells by platelet agonists (αIIb β3 on A5 cells [1]): failed to stimulate

reaction of PAC1 with αIIb β3 in the A5 cell line (αIIb β3 on A5 cells [1]; FITC-PAC1 10 ug/ml, no agonist): did not react | reaction of PAC1 with resting platelets (GPIIb-IIIa on platelets [3]; FITC-PAC1 10 ug/ml, no agonist): did not react
Compound: PAC1

Compound: CCCCCCCCCCCCCC(=O)O[C@@H]1[C@@H](C)[C@@]2(O)[C@@H](C=C(CO)C[C@]3(O)C(=O)C(C)=C[C@@H]23)[C@@H]2C(C)(C)[C@]12OC(C)=O [phorbol myristate acetate]
stimulation of PAC1 binding to A5 cells by platelet agonists (αIIb β3 on A5 cells [1]): failed to stimulate | PAC1 response after fixation of platelets [2]: completely abrogated

stimulation of PAC1 binding to A5 cells by platelet agonists (αIIb β3 on A5 cells [1]): failed to stimulate | PAC1 staining of agonist activated platelets (GPIIb-IIIa on platelets [3]; ADP activated platelets, FACS): stained brightly
Compound: Nc1ncnc2c1ncn2[C@@H]1O[C@H](COP(=O)(O)OP(=O)(O)O)[C@@H](O)[C@H]1O [ADP, adenosine diphosphate]

EC50 (GPIIb-IIIa on platelets [4]): ~700 nM | non-saturable binding (αIIb β3 on A5 cells [5]; Ab-62 activated A5 cells): 2.2±0.4×10^-3 | receptor concentration (αIIb β3 on A5 cells [5]; Ab-62 activated A5 cells, 10^6 per ml): 2.3 ± 0.3 nM | Fg binding sites per cell (αIIb β3 on A5 cells [5]; Ab-62 activated A5 cells, Ligand program fit): 138,000 sites/cell | reversibility of Fg binding (αIIb β3 on A5 cells [5]; Ab-62 stimulated A5 cells): > 75% | time for Fg binding to reach steady state (αIIb β3 on A5 cells [5]; Ab-62 stimulated A5 cells): ≤ 30 min | number of Fg receptors (αIIb β3 on A5 cells [5]; activated A5 cells, day to day variation): 138,000 to 360,000 sites/cell | ratio of Fg receptors to αIIb β3 expressed per cell (αIIb β3 on A5 cells [5]; on a given day): 0.83±0.05 | inhibition of Fg binding to stimulated captured receptor [6]: inhibition
Compound: fibrinogen

inhibition of soluble 125I-Fg binding to activated A5 cells (αIIb β3 on A5 cells [5]): not inhibited
Compound: N=C(N)NCCC[C@H](NC(=O)CN)C(=O)NCC(=O)N[C@@H](CCC(=O)O)C(=O)N[C@@H](CO)C(=O)N1CCC[C@H]1C(=O)O [GRGESP] (H-GRGESP-OH)
